# In patent US20180305370A1 (ORPHOMED, INC., priority 2015, published 2018):
# Like-named read-outs stand apart in the source and are kept apart here.
# Legend:
# [1] = tested on: formalin-induced hind paw licking; assay: Analgesia, formalin paw mouse study (hind paw licking time)
# [2] = In vivo pharmacokinetic study, IV and oral gavage
# Experimental: The animal pharmacokinetic studies were conducted at Johns Hopkins Medical Institute using CD-1 mice (weighing about 35 gm, n=3 per time point). […] Blood collected at 0, 30 min and 1, 2, 6 and 24 hours post-dose. Blood samples for the drug were analyzed after harvesting the plasma and by LC/MS/MS as follows:
# Extracts were centrifuged at 16000×g at 4° C. for 5 minutes. Supernatants (250 μL) were transferred to a new tube and dried under N2 at 45° C. for 1 hour. Samples were reconstituted with 100 μL of 30% acetonitrile, vortexed and centrifuged. Supernatants (90 μL) were transferred to LC vials and 10 μL was injected on LC/MS.
# human liver microsomes = assay: Metabolic stability in human liver microsomes; conditions: 1 μM, human liver microsomes 1 mg protein/mL, up to 120 min, FIG. 1
# [3] = for stability over time: 28 months, room temperature
# [4] = in vivo; cited from earlier work
# ORL-1 = ORL-1 (Homo sapiens, UniProt P41146); conditions: cited from earlier work
# Sequence of ORL-1 (P41146 whole entry, species assumed): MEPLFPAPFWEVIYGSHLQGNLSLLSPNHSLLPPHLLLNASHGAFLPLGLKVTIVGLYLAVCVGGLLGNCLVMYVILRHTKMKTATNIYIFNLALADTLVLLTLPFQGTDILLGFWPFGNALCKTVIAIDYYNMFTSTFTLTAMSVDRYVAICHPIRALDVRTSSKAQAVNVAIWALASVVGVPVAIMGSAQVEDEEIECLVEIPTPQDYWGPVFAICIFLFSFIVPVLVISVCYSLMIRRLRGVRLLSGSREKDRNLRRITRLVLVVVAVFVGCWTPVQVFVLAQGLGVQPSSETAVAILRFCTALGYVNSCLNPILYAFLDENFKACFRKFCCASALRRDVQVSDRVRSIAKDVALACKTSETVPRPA
# [5] = cited from earlier work
Compound,"analgesic effect ([1]; 5 mg/kg IP, mice, FIG. 9)","activity, less than morphine ([1]; animal studies versus morphine (Example 7))","absolute bioavailability (ratio of area under the concentration curve after oral and IV dose) ([2]; CD-1 mice, 10 mg/kg oral gavage vs IV, FIG. 6)","bioavailability, less than morphine ([2]; animal studies versus morphine)",metabolism in presence of microsomal enzymes (human liver microsomes),stability over time ([3]; listed as EGE conjugate),stability over time ([3]; listed as compound of the invention),"HPLC Purity, September 2015 ([3]; hydrochloride salt, after 28 months at room temperature in clear glass vials)","HPLC Purity, May 2013 ([3]; hydrochloride salt, immediately after synthesis, stability baseline)",analgesic potency compared with morphine [4],Activity (ORL-1),absolute bioavailability after an oral dose [5]
"2-[(2S)-2-[(5R,6R,7R,14S)-9α-cyclopropylmethyl-4,5-epoxy-6,14-ethano-3-hydroxy-6-methoxymorphinan-7-yl]-3,3-dimethylbutan-2-ol]-ethanol [EGE buprenorphine hydrochloride]",rapid analgesic effect,about 2.5%,about 40%,about 40%,rapid metabolism,unchanged over time,significantly more stable,98.7% (AUC),98.6% (AUC),,,
"CO[C@]12CC[C@@]3(C[C@@H]1[C@](C)(O)C(C)(C)C)[C@H]1Cc4ccc(O)c5c4[C@@]3(CCN1CC1CC1)[C@H]2O5 [Buprenorphine, buprenorphine]",,,,,,,,,,about thirty times more potent,Agonist,less than 10%
